Data from ChEMBL document CHEMBL1127098, “Anticonvulsant activity of glycine-site NMDA antagonists. 1. 2-carboxyl prodrugs of 5,7-dichlorokynurenic acid” (Bioorg Med Chem Lett, 1993).

Experiments:
Mus musculus [1] = assay: Tested for anticonvulsant activity by the antagonism of audiogenic seizures in DBA/2 mice and number of mice protected from tonic seizure/number of mice tested at 250 mg/kg dose after 15 mins was reported (8 out of 8); format: functional
Mus musculus [2] = assay: Tested for anticonvulsant activity by the antagonism of audiogenic seizures in DBA/2 mice and number of mice protected from tonic seizure/number of mice tested at 250 mg/kg dose after 60 mins was reported (7 out of 8); format: functional
Mus musculus [3] = species: Mus musculus; assay: Tested for the anticonvulsant activity by the antagonism of the audiogenic seizures in DBA/2 mice after 30 minutes; format: functional; conditions: 0.5 h
Mus musculus [4] = assay: Tested for anticonvulsant activity by the antagonism of audiogenic seizures in DBA/2 mice and number of mice protected from tonic seizure/number of mice tested at 250 mg/kg dose after 30 mins was reported (8 out of 8); format: functional
Mus musculus [5] = assay: Tested for the effective dose required for anticonvulsant activity when given intraperitoneally after 15 minutes in DBA/2 mice; format: functional; conditions: ip, 0.25 h
Mus musculus [6] = assay: Tested for anticonvulsant activity by the antagonism of audiogenic seizures in DBA/2 mice and number of mice protected from tonic seizure/number of mice tested at 250 mg/kg dose after 120 mins was reported (2 out of 8); format: functional
Mus musculus [7] = assay: Tested for anticonvulsant activity by the antagonism of audiogenic seizures in DBA/2 mice and number of mice protected from tonic seizure/number of mice tested at 250 mg/kg dose after 120 mins was reported (3 out of 7); format: functional
Mus musculus [8] = assay: Tested for anticonvulsant activity by the antagonism of audiogenic seizures in DBA/2 mice and number of mice protected from tonic seizure/number of mice tested at 250 mg/kg dose after 15 mins was reported (5 out of 7); format: functional
Mus musculus [9] = assay: Tested for anticonvulsant activity by the antagonism of audiogenic seizures in DBA/2 mice and number of mice protected from tonic seizure/number of mice tested at 250 mg/kg dose after 60 mins was reported (2 out of 8); format: functional
Mus musculus [10] = assay: Tested for anticonvulsant activity by the antagonism of audiogenic seizures in DBA/2 mice and number of mice protected from tonic seizure/number of mice tested at 250 mg/kg dose after 30 mins was reported (7 out of 8); format: functional
Mus musculus [11] = assay: Tested for anticonvulsant activity by the antagonism of audiogenic seizures in DBA/2 mice and number of mice protected from tonic seizure/number of mice tested at 250 mg/kg dose after 30 mins was reported (1 out of 8); format: functional
Mus musculus [12] = assay: Tested for anticonvulsant activity by the antagonism of audiogenic seizures in DBA/2 mice and number of mice protected from tonic seizure/number of mice tested at 250 mg/kg dose after 15 mins was reported (0 out of 8); format: functional
Mus musculus [13] = assay: Tested for anticonvulsant activity by the antagonism of audiogenic seizures in DBA/2 mice and number of mice protected from tonic seizure/number of mice tested at 250 mg/kg dose after 60 mins was reported (3 out of 8); format: functional
Mus musculus [14] = assay: Tested for anticonvulsant activity by the antagonism of audiogenic seizures in DBA/2 mice and number of mice protected from tonic seizure/number of mice tested at 250 mg/kg dose after 120 mins was reported (3 out of 9); format: functional
Mus musculus [15] = assay: Tested for anticonvulsant activity by the antagonism of audiogenic seizures in DBA/2 mice and number of mice protected from tonic seizure/number of mice tested at 250 mg/kg dose after 15 mins was reported (1 out of 8); format: functional
Mus musculus [16] = assay: Tested for anticonvulsant activity by the antagonism of audiogenic seizures in DBA/2 mice and number of mice protected from tonic seizure/number of mice tested at 250 mg/kg dose after 120 mins was reported (1 out of 8); format: functional
Mus musculus [17] = assay: Tested for anticonvulsant activity by the antagonism of audiogenic seizures in DBA/2 mice and number of mice protected from tonic seizure/number of mice tested at 250 mg/kg dose after 30 mins was reported (5 out of 8); format: functional
Mus musculus [18] = assay: Tested for the effective dose required for anticonvulsant activity when given intraperitoneally after 30 minutes in DBA/2 mice; format: functional; conditions: ip, 0.5 h
Mus musculus [19] = assay: Tested for anticonvulsant activity by the antagonism of audiogenic seizures in DBA/2 mice and number of mice protected from tonic seizure/number of mice tested at 250 mg/kg dose after 60 mins was reported (4 out of 8); format: functional
Mus musculus [20] = assay: Tested for anticonvulsant activity by the antagonism of audiogenic seizures in DBA/2 mice and number of mice protected from tonic seizure/number of mice tested at 250 mg/kg dose after 60 mins was reported (1 out of 6); format: functional
Mus musculus [21] = assay: Tested for anticonvulsant activity by the antagonism of audiogenic seizures in DBA/2 mice and number of mice protected from tonic seizure/number of mice tested at 250 mg/kg dose after 120 mins was reported (0 out of 6); format: functional
Mus musculus [22] = assay: Tested for anticonvulsant activity by the antagonism of audiogenic seizures in DBA/2 mice and number of mice protected from tonic seizure/number of mice tested at 250 mg/kg dose after 30 mins was reported (1 out of 6); format: functional
Mus musculus [23] = assay: Tested for anticonvulsant activity by the antagonism of audiogenic seizures in DBA/2 mice and number of mice protected from tonic seizure/number of mice tested at 250 mg/kg dose after 15 mins was reported (4 out of 8); format: functional
Mus musculus [24] = assay: Tested for anticonvulsant activity by the antagonism of audiogenic seizures in DBA/2 mice and number of mice protected from tonic seizure/number of mice tested at 250 mg/kg dose after 30 mins was reported (0 out of 8); format: functional
Mus musculus [25] = assay: Tested for anticonvulsant activity by the antagonism of audiogenic seizures in DBA/2 mice and number of mice protected from tonic seizure/number of mice tested at 250 mg/kg dose after 120 mins was reported (0 out of 8); format: functional
Mus musculus [26] = assay: Tested for anticonvulsant activity by the antagonism of audiogenic seizures in DBA/2 mice and number of mice protected from tonic seizure/number of mice tested at 250 mg/kg dose after 60 mins was reported (5 out of 8); format: functional
Mus musculus [27] = assay: Tested for anticonvulsant activity by the antagonism of audiogenic seizures in DBA/2 mice and number of mice protected from tonic seizure/number of mice tested at 250 mg/kg dose after 60 mins was reported (5 out of 7); format: functional
[28] = Half-life at pH 7.4; format: ADME; conditions: buffer
Mus musculus [29] = assay: Tested for anticonvulsant activity by the antagonism of audiogenic seizures in DBA/2 mice and number of mice protected from tonic seizure/number of mice tested at 250 mg/kg dose after 15 mins was reported (7 out of 7); format: functional
Mus musculus [30] = assay: Tested for anticonvulsant activity by the antagonism of audiogenic seizures in DBA/2 mice and number of mice protected from tonic seizure/number of mice tested at 250 mg/kg dose after 30 mins was reported (7 out of 7); format: functional
Mus musculus [31] = assay: Tested for anticonvulsant activity by the antagonism of audiogenic seizures in DBA/2 mice and number of mice protected from tonic seizure/number of mice tested at 250 mg/kg dose after 60 mins was reported (1 out of 7); format: functional
Mus musculus [32] = assay: Tested for anticonvulsant activity by the antagonism of audiogenic seizures in DBA/2 mice and number of mice protected from tonic seizure/number of mice tested at 250 mg/kg dose after 120 mins was reported (1 out of 7); format: functional
Mus musculus [33] = assay: Tested for the effective dose required for anticonvulsant activity when given intraperitoneally; format: functional; conditions: ip

For `CC(CN(C)C)OC(=O)c1cc(O)c2c(Cl)cc(Cl)cc2n1` (stereo unspecified), which “No. of mouse protected” value (Mus musculus [1]) is on record?
The value was 8.

What about the “No. of mouse protected” value (Mus musculus [2]) of the same compound?
Its value is 7.

And the ED50 (Mus musculus [3])?
Its ED50 is 138 mg/kg.

What about the “No. of mouse protected” value (Mus musculus [4]) of the same compound?
Its value is 8.

And the ED50 (Mus musculus [5])?
Its ED50 is 62 mg/kg.

And the “No. of mouse protected” value (Mus musculus [6])?
Its value is 2.

Which results are given for `CN(C)CCCOC(=O)c1cc(O)c2c(Cl)cc(Cl)cc2n1`?
No. of mouse protected (Mus musculus [7]): 3; No. of mouse protected (Mus musculus [8]): 5; No. of mouse protected (Mus musculus [9]): 2; No. of mouse protected (Mus musculus [10]): 7

What does the source list for `O=C(OCCN1CCOCC1)c1cc(O)c2c(Cl)cc(Cl)cc2n1`?
No. of mouse protected (Mus musculus [11]): 1; No. of mouse protected (Mus musculus [12]): 0; No. of mouse protected (Mus musculus [13]): 3; No. of mouse protected (Mus musculus [14]): 3

For `CN(C)CCNC(=O)c1cc(O)c2c(Cl)cc(Cl)cc2n1`, which “No. of mouse protected” value (Mus musculus [15]) is on record?
The value was 1.

What about the “No. of mouse protected” value (Mus musculus [16]) of the same compound?
The value was 1.

And the “No. of mouse protected” value (Mus musculus [17])?
The value was 5.

And the ED50 (Mus musculus [18])?
Its ED50 is 303 mg/kg.

What about the “No. of mouse protected” value (Mus musculus [19]) of the same compound?
The value was 4.

Which “No. of mouse protected” value (Mus musculus [20]) does the source give for `C[N+](C)(C)CCNC(=O)c1cc(O)c2c(Cl)cc(Cl)cc2n1.[I-]` here?
The value was 1.

What about the “No. of mouse protected” value (Mus musculus [21]) of the same compound?
The value was 0.

What about the “No. of mouse protected” value (Mus musculus [22]) of the same compound?
The value was 1.

And the “No. of mouse protected” value (Mus musculus [23])?
Its value is 4.

Which “No. of mouse protected” value (Mus musculus [15]) does the source give for `O=C(NCCN1CCOCC1)c1cc(O)c2c(Cl)cc(Cl)cc2n1` here?
The value was 1.

And the “No. of mouse protected” value (Mus musculus [9])?
Its value is 2.

And the “No. of mouse protected” value (Mus musculus [24])?
The value was 0.

What about the “No. of mouse protected” value (Mus musculus [25]) of the same compound?
Its value is 0.

For `O=C(OCCN1CCCC1)c1cc(O)c2c(Cl)cc(Cl)cc2n1`, which “No. of mouse protected” value (Mus musculus [1]) is on record?
The value was 8.

What about the “No. of mouse protected” value (Mus musculus [25]) of the same compound?
The value was 0.

What about the “No. of mouse protected” value (Mus musculus [26]) of the same compound?
Its value is 5.

What about the “No. of mouse protected” value (Mus musculus [10]) of the same compound?
Its value is 7.

And the ED50 (Mus musculus [5])?
The ED50 was 128 mg/kg.

With `CCN(CC)CCOC(=O)c1cc(O)c2c(Cl)cc(Cl)cc2n1` as the compound, how does the “No. of mouse protected” value (Mus musculus [1]) read?
Its value is 8.

What about the “No. of mouse protected” value (Mus musculus [16]) of the same compound?
The value was 1.

What about the ED50 (Mus musculus [18]) of the same compound?
Its ED50 is 171 mg/kg.

What about the “No. of mouse protected” value (Mus musculus [27]) of the same compound?
Its value is 5.

What about the “No. of mouse protected” value (Mus musculus [4]) of the same compound?
Its value is 8.

What about the ED50 (Mus musculus [5]) of the same compound?
The ED50 was 98 mg/kg.

And the half-life [28]?
Its half-life is 22 min.

What does the source list for `CC(C)N(CCOC(=O)c1cc(O)c2c(Cl)cc(Cl)cc2n1)C(C)C`?
No. of mouse protected (Mus musculus [29]): 7; No. of mouse protected (Mus musculus [30]): 7; No. of mouse protected (Mus musculus [31]): 1; ED50 (Mus musculus [5]): 152 mg/kg; No. of mouse protected (Mus musculus [32]): 1

For `O=C(O)c1cc(O)c2c(Cl)cc(Cl)cc2n1`, which ED50 (Mus musculus [33]) is on record?
Its ED50 is 250 mg/kg.

What about the “No. of mouse protected” value (Mus musculus [24]) of the same compound?
Its value is 0.
